{"source": "paper PMC5762315", "about": "“Inhibition of polo-like kinase 4 (PLK4): a new therapeutic option for rhabdoid tumors and pediatric medulloblastoma” (Oncotarget, 2017)", "experiment_in_all_cases": "biochemical", "assay_type_in_all_cases": "biochemical", "key": {"various kinases [1]": {"target": "various kinases (Homo sapiens, UniProt P00519, G250E)", "settings": "ABL1 G250E"}, "various kinases [2]": {"target": "various kinases (Homo sapiens, UniProt P53779)", "sequence (P53779 whole entry)": "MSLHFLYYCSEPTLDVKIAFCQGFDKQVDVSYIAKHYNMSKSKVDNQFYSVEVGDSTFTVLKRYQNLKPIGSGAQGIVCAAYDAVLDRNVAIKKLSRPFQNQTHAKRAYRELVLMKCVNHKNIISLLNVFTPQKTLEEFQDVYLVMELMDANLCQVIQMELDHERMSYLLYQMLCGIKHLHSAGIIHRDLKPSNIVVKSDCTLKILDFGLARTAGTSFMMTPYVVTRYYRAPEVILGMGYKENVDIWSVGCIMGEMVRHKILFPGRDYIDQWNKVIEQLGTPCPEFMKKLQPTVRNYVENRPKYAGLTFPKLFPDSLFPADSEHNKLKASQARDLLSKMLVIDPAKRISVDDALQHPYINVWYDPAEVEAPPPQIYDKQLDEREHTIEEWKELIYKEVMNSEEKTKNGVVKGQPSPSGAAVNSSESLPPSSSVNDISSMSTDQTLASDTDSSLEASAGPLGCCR", "settings": "MAPK10 (JNK3)"}, "various kinases [3]": {"target": "T1, various kinases (Homo sapiens, UniProt Q13043)", "T1 sequence (Q13043 1-487)": "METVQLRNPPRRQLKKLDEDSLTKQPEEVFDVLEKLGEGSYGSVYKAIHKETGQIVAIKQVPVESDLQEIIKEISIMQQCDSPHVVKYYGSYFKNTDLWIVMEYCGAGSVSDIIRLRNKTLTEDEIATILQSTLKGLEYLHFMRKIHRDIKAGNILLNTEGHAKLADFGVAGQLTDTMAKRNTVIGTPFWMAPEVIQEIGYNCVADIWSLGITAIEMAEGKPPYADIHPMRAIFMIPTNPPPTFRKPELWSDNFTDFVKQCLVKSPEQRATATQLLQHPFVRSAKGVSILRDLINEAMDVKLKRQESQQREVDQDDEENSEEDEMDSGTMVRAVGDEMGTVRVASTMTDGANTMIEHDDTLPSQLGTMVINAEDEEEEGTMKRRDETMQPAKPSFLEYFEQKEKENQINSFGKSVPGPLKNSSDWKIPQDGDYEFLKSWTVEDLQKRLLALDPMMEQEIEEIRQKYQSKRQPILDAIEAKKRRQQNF", "settings": "kinase STK4 (MST1); ZLYTE"}, "various kinases [4]": {"target": "T2, various kinases (Homo sapiens, UniProt Q13237)", "T2 sequence (Q13237 1-762)": "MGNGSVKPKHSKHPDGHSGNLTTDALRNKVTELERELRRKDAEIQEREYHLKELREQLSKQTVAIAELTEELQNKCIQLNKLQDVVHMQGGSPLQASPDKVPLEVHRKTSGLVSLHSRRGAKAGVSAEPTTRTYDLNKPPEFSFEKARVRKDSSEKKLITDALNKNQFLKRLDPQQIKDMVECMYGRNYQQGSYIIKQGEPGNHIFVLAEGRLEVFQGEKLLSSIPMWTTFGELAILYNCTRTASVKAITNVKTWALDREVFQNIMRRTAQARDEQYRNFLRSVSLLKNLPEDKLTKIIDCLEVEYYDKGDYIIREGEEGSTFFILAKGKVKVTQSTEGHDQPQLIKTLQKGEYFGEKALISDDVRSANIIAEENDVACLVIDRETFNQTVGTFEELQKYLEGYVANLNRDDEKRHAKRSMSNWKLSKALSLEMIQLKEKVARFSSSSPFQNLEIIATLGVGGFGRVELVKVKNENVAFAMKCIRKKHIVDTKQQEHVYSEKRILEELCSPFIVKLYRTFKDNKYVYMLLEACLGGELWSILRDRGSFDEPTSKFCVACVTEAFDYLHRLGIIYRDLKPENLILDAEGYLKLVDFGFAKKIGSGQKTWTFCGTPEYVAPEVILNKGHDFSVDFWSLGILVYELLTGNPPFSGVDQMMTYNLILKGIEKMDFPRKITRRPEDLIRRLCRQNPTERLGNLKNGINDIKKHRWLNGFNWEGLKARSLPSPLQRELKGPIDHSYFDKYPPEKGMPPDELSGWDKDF", "settings": "kinase PRKG2 (PKG2); ZLYTE"}, "various kinases [5]": {"target": "various kinases (Homo sapiens, UniProt Q8TDC3)", "sequence (Q8TDC3 whole entry)": "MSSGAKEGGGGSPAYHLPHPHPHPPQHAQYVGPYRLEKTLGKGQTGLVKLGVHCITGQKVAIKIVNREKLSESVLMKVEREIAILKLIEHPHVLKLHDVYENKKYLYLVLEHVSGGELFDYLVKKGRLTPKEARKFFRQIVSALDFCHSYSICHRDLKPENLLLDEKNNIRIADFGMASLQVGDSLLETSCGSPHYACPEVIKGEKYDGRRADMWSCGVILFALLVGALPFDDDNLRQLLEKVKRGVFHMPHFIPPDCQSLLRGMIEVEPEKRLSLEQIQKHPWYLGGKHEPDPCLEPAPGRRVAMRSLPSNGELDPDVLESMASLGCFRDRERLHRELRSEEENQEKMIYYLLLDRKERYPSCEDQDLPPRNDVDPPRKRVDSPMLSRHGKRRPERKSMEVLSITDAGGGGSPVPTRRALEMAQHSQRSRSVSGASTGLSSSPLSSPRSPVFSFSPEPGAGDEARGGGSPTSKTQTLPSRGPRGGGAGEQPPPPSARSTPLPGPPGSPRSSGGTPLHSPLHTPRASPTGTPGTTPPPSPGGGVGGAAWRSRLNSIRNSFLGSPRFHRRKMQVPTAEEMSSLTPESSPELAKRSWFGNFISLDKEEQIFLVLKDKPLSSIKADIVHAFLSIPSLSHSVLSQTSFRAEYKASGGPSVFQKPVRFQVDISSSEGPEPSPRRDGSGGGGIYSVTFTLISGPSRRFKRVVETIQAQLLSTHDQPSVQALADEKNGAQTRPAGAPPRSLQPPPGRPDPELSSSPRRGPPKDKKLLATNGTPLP", "settings": "BRSK1 (SAD1)"}, "various kinases [6]": {"target": "T3, various kinases (Homo sapiens, UniProt Q9HBY8)", "T3 sequence (Q9HBY8 1-367)": "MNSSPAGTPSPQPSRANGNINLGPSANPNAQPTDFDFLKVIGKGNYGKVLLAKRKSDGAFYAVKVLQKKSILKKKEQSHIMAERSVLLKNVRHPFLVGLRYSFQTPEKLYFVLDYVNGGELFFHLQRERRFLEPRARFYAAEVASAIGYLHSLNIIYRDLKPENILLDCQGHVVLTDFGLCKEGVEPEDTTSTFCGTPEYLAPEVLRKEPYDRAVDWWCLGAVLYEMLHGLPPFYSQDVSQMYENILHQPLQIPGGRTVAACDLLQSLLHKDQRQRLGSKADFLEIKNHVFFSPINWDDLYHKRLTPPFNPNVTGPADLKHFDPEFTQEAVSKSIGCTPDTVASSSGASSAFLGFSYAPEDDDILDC", "settings": "kinase SGK2; ZLYTE"}, "various kinases [7]": {"target": "T4, various kinases (Homo sapiens, UniProt Q9UHD2)", "T4 sequence (Q9UHD2 1-729)": "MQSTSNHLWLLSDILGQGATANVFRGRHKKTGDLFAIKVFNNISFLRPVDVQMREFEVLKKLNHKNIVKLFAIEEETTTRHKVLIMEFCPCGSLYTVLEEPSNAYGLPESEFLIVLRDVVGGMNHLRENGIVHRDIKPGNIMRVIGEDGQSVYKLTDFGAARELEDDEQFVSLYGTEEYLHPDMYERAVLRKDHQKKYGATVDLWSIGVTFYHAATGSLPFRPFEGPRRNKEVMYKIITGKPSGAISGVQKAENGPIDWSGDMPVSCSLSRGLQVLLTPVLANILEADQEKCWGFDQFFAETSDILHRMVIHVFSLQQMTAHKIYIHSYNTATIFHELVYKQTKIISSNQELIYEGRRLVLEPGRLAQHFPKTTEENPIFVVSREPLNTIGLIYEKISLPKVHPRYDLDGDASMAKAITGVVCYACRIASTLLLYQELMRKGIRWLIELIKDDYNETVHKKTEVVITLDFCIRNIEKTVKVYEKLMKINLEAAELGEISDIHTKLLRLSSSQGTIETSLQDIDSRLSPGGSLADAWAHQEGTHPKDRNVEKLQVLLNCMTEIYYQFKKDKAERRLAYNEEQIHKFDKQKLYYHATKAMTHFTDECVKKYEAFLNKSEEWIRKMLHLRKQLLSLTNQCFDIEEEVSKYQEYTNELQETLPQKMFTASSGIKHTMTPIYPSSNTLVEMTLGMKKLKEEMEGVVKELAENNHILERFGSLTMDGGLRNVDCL", "settings": "kinase TBK1; ZLYTE"}}, "note": "Values joined by “and” are separate entries in the source; they are usually repeats but may differ in a detail not shown here. Equal values may be shown once."}
{"smiles": "COc1ccc2c(c1)[C@]1(C[C@H]1c1ccc3c(/C=C/c4ccc(CN5C[C@@H](C)O[C@@H](C)C5)cc4)n[nH]c3c1)C(=O)N2", "note": "[CFI-400945]", "values": [{"measurement": "% Inhibition", "setting": "various kinases [1]", "result": "45% and 42%"}, {"measurement": "% Inhibition", "setting": "various kinases [2]", "result": 5, "unit": "%"}, {"measurement": "% Inhibition Average", "setting": "various kinases [3]", "result": 23, "unit": "%"}, {"measurement": "% Inhibition Duplicate #1", "setting": "various kinases [3]", "result": 22, "unit": "%"}, {"measurement": "% Inhibition Duplicate #2", "setting": "various kinases [3]", "result": 24, "unit": "%"}, {"measurement": "% Inhibition Average", "setting": "various kinases [4]", "result": 1, "unit": "%"}, {"measurement": "% Inhibition Duplicate #1", "setting": "various kinases [4]", "result": 2, "unit": "%"}, {"measurement": "% Inhibition Duplicate #2", "setting": "various kinases [4]", "result": 0, "unit": "%"}, {"measurement": "% Inhibition", "setting": "various kinases [5]", "result": "13% and 7%"}, {"measurement": "% Inhibition Average", "setting": "various kinases [6]", "result": 5, "unit": "%"}, {"measurement": "% Inhibition Duplicate #1", "setting": "various kinases [6]", "result": 4, "unit": "%"}, {"measurement": "% Inhibition Duplicate #2", "setting": "various kinases [6]", "result": 5, "unit": "%"}, {"measurement": "% Inhibition Average", "setting": "various kinases [7]", "result": 4, "unit": "%"}, {"measurement": "% Inhibition Duplicate #1", "setting": "various kinases [7]", "result": 3, "unit": "%"}, {"measurement": "% Inhibition Duplicate #2", "setting": "various kinases [7]", "result": 4, "unit": "%"}]}
